Common to all, as to experiment: DTP human tumour cell line panel, 48 h
Assay [1] deals with HCT-15 colon.
In assay [2] the test system is HOP-62 NSCLC.
Assay [3] deals with HOP-92 NSCLC.
Assay [4] concerns IGROV1 ovarian.
Assay [5] has as its system MDA-MB-231 breast.
Assay [6] deals with SK-MEL-28 melanoma.
The subject of assay [7] is SR leukemia.
Assay [8] relates to SW-620 colon.
The test system of assay [9] is U251 CNS.
The test system of assay [10] is UACC-257 melanoma.

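96-well plates; 48 h exposure; 5 concentrations. Endpoints by linear interpolation between flanking doses. Not reached: highest tested concentration assigned. Here, GI50 denotes the concentration required for 50% inhibition of growth. The concentration for full growth arrest is given as TGI.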

Regarding `CC1=Cc2ccc(C)cc2C(=O)C1=O`, the TGI came out at 47.1 µM in assay [1]; 57 µM in assay [2]; 17.6 µM in [3]; 29.4 µM in [4]; 59.6 µM in assay [5]; 52.9 µM in assay [6]. For the same compound, the TGI in assay [7] was 4.38 µM; in assay [8] it was over 100 µM; in assay [9], 45.2 µM; in [10] it was 15.8 µM.

As for `Cc1nc(Nc2cccnc2)sc1C(=O)/C=C/c1ccc(Cl)cc1`, the GI50 in assay [1] was 1.59 µM; in assay [2] it was 2.56 µM; in [3] it was 3.23 µM; in [4] it was 3.29 µM; in assay [5] it was 4.7 µM; in assay [6] it was 3.04 µM. Besides, the GI50 is 2300 nM in assay [7], 2080 nM in assay [8], 1810 nM in [9] and 9.22 µM in [10]. The TGI in [1] was 4.03 µM; in assay [2], 7.6 µM; in assay [3], 15.2 µM; in assay [4], over 100 µM; in assay [5] it was over 100 µM; in assay [6], 14.7 µM. For the same compound, the TGI in assay [7] was over 100 µM; in [8], 4.75 µM; in [9], 3.72 µM; in assay [10], over 100 µM.

`CCN(c1cc(-c2ccc(CN3CCOCC3)cc2)cc(C(=O)NCc2c(C)cc(C)[nH]c2=O)c1C)C1CCOCC1`: the GI50 is 19.2 µM in assay [1]; 30.7 µM in assay [2]; 16.8 µM in assay [3]; 30.3 µM in [4]; 20.4 µM in [5]; 20.5 µM in assay [6]. Besides, the GI50 in [7] is 21700 nM; in [8] it was 20700 nM; in assay [9], 26000 nM; in assay [10], 16.2 µM. Further, the TGI in assay [1] was 48.4 µM; in [2], 99.2 µM; in [3], over 57 µM; in [4], over 63 µM; in [5], 44.7 µM; in [6], 47.7 µM. The TGI was 58.2 µM in assay [7], 52.4 µM in assay [8], over 81 µM in [9] and 33.5 µM in [10].

Regarding `O=c1[nH]c2nc(NC3CCOCC3)ncc2cc1Oc1ccc(F)cc1F`, the GI50 in assay [1], in assay [2], in assay [3], in [4], in [5] and in [6] was over 25 µM throughout. Further, the GI50 in assay [7] is over 25000 nM; in [8] it was over 25000 nM; in [9], over 25000 nM; in assay [10], over 25 µM. For the same compound, the TGI in [1], in [2], in assay [3], in assay [4], in assay [5] and in [6] was over 25 µM throughout. Also, the TGI in assay [7], in assay [8], in [9] and in assay [10] was over 25 µM throughout.

Consider `O=C1/C(=C/c2ccccc2)CN(C(=O)CCN2CCCC2)C/C1=C\c1ccccc1`, for which the TGI in assay [1] came out at 3.97 µM; in assay [2] it was 16 µM; in assay [3], 14.8 µM; in [4], 7.75 µM; in assay [5] it was 3.78 µM; in [6] it was 3.38 µM. Further, the TGI in assay [7] turned out to be 1.07 µM; in assay [8], 0.511 µM; in [9], 2.51 µM; in [10], 6.65 µM.

Turning to `O=C(NCCc1ccccn1)OCc1nc2nc(Cl)nc(N3CCOCC3)c2[nH]1`, the GI50 was 1.74 µM in assay [1]; 2.37 µM in [2]; 1.15 µM in assay [3]; 1.57 µM in assay [4]; 1.6 µM in assay [5]; 1.67 µM in assay [6]. The GI50 was 1970 nM in assay [7], 1700 nM in assay [8], 3390 nM in assay [9] and 1.87 µM in assay [10]. Besides, the TGI was determined as 5.17 µM in assay [1]; 12.6 µM in assay [2]; 3.81 µM in assay [3]; 2.98 µM in assay [4]; 3.17 µM in [5]; 3.32 µM in assay [6]. For the same compound, the TGI is over 100 µM in assay [7], 4.25 µM in [8], 12.2 µM in assay [9] and 5.26 µM in assay [10].

With `COc1ccc(C(O)c2cc3c(N)c(C(=O)Nc4cccc(Cl)c4)sc3nc2C)cc1` (centres undefined), the GI50 is 1.18 µM in assay [1]; 0.617 µM in assay [2]; 3.66 µM in assay [3]; 2.52 µM in [4]; 1.41 µM in [5]; 1.23 µM in assay [6]. Further, the GI50 is 339 nM in assay [7], 1000 nM in assay [8], 1140 nM in assay [9] and 8.6 µM in [10]. Further, the concentration for total growth inhibition (TGI) in assay [1] is over 49.2 µM; in assay [2] it was 19.9 µM; in assay [3] it was over 39.9 µM; in [4], over 56 µM; in [5] it was over 33.1 µM; in [6], 55 µM. For the same compound, the results for the concentration for total growth inhibition (TGI) in assay [8], in assay [9] and in [10] were over 38.3 µM, over 37.8 µM and 81 µM, respectively.

For `Cc1nn2c(/C=C3/C(=O)Nc4cc(Cl)ccc43)c(-c3ccccc3)nc2s1`, the GI50 in [1] is 4.79 µM; in [2], 4.4 µM; in assay [4], 2.07 µM; in assay [5] it was 1.99 µM; in assay [7], 3090 nM; in assay [8], 3000 nM. In addition, the GI50 in [9] is 2680 nM; in [10], 2.65 µM. Further, the TGI in [1] was over 100 µM; in assay [2] it was 17.9 µM; in assay [4] it was 4.62 µM; in assay [5], 5.62 µM; in [7], over 100 µM; in assay [8], over 100 µM. Further, the TGI in assay [9] was found to be 8.5 µM; in [10], 8.32 µM.

Regarding `c1ccc(CN2CCC(Nc3ccccc3)(c3nnnn3Cc3ccccc3)CC2)cc1`, the TGI in [1] is 97.9 µM; in assay [2] it was over 100 µM; in [3] it was 34.5 µM; in assay [4], over 100 µM; in [5], 88.9 µM; in assay [6] it was 36.5 µM. Besides, the TGI is 93.2 µM in [7], 60.6 µM in [8], over 100 µM in assay [9] and 34.5 µM in assay [10].

Take `Cc1ccc(S(=O)(=O)c2nc(-c3ccccc3)oc2S(C)=O)cc1` (centres undefined): the GI50 is 6.87 µM in assay [2]; 1.38 µM in assay [3]; 1.47 µM in [5]; 1.95 µM in assay [6]; 1670 nM in [7]; 1470 nM in assay [8]. Further, the GI50 in assay [9] is 1700 nM; in assay [10] it was 1.58 µM. The TGI worked out at 20.3 µM in assay [2]; 2.77 µM in assay [3]; 2.87 µM in assay [5]; 3.5 µM in [6]; 7.7 µM in assay [7]; 3.48 µM in assay [8]. Further, the total growth inhibition concentration (TGI) in assay [9] was determined as 3.17 µM; in [10] it was 3.11 µM.

Regarding `COC(=O)COc1ccc(/C=C2/N=C(c3ccccc3)N(c3c(C)n(C)n(-c4ccccc4)c3=O)C2=O)cc1`, the GI50 in [1] is 66.5 µM; in assay [2], 31.7 µM; in assay [3], 25.1 µM; in [4] it was 23.6 µM; in assay [5], 21.8 µM; in [6], 16.8 µM. Also, the GI50 in assay [7] was 23100 nM; in assay [8] it was 22000 nM; in assay [9], 67600 nM. Further, the TGI in [1] was over 100 µM; in assay [2], 97.7 µM; in assay [3] it was 55.1 µM; in [4], 42.3 µM; in [5], 45.1 µM; in assay [6], 30.9 µM. Besides, the results for the concentration for total growth inhibition (TGI) in assay [7], in assay [8] and in assay [9] were 69.3 µM, 50.6 µM and over 100 µM, respectively.

For the compound `CN(C)CCSS(=O)(=O)O`, the TGI in [1], in assay [2], in [3], in assay [4], in assay [5] and in assay [6] was over 100 µM in each case. Further, the TGI in assay [7], in assay [8] and in assay [9] was over 100 µM in each case.

As for `O=S(=O)(NCn1ccc2ccccc21)c1ccccc1`, the TGI was over 100 µM in [1]; over 100 µM in assay [2]; over 100 µM in assay [3]; over 100 µM in [4]; over 100 µM in assay [6]; over 74.3 µM in [7]. Moreover, the TGI in [8], in [9] and in [10] was over 100 µM throughout.

As to `Cn1c(-c2ccc(/C=N/NC(=S)N/N=C/c3ccc(-c4c[n+]5ccsc5n4C)cc3)cc2)c[n+]2ccsc12`, the TGI in assay [1], in assay [2], in assay [4], in [5], in assay [6] and in assay [7] was over 100 µM in each case. In addition, the TGI in assay [8], in assay [9] and in [10] was over 100 µM each time.

Turning to `Cn1cc(C2=C(c3cn(C)c4ccc(Cl)cc34)C(=O)NC2=O)c2ccccc21`, the GI50 in assay [1] is 1.35 µM; in assay [2], 3.79 µM; in assay [4] it was 6.51 µM; in [5] it was 6.69 µM; in assay [6] it was 4.26 µM; in assay [7], 1180 nM. Moreover, the GI50 in [8] was 1380 nM; in assay [9], 2210 nM; in assay [10] it was 5.09 µM. For the same compound, the TGI is over 25 µM in assay [1]; 17.8 µM in [2]; over 21.7 µM in [4]; over 25 µM in [5]; 19.6 µM in assay [6]; 16.2 µM in [7]. Also, the TGI was over 25 µM in assay [8], 14 µM in assay [9] and 16.8 µM in [10].

With `CC(C)(C)C(=CS(=O)/N=C/c1ccccc1)C(C)(C)C` (centres undefined), the TGI in assay [1] is 80.7 µM; in assay [2] it was over 100 µM; in assay [3], 51.2 µM; in assay [4], 71.2 µM; in [6], over 100 µM; in assay [7], 58.9 µM. Moreover, the results for the TGI in assay [8], in assay [9] and in assay [10] were over 100 µM, 84.7 µM and over 100 µM, respectively.

Turning to `C1=C2CCCC3=Cc4ccccc4OC23Oc2ccccc21`, the GI50 in assay [1] was 3.68 µM; in [2] it was 3.8 µM; in [4], 5.36 µM; in assay [5], 4.23 µM; in assay [6] it was 5.22 µM; in assay [7], 2820 nM. Further, the results for the GI50 in [8], in [9] and in [10] were 3360 nM, 4540 nM and 5.49 µM, respectively. Also, the TGI in [1] is over 100 µM; in assay [2], over 100 µM; in assay [4] it was over 100 µM; in assay [5], 45.5 µM; in assay [6], over 100 µM; in assay [7] it was over 100 µM. Besides, the TGI is 53.6 µM in assay [8], over 100 µM in assay [9] and over 100 µM in [10].

Regarding `CCOC(=O)CCn1ncc(Cl)c(Cl)c1=O`, the TGI in [1] came out at 4.69 µM; in [2], 39.8 µM; in [3] it was 26.2 µM; in assay [4], 26 µM; in assay [6], 6.58 µM; in assay [7], 7.28 µM. In addition, the values for the TGI in [8], in assay [9] and in assay [10] were 9.7 µM, 17.1 µM and 26.5 µM, respectively.

Consider `Cc1cc(N=C2C=C(Br)C(=O)C(Br)=C2)cc(CN(CC(=O)O)CC(=O)O)c1O`, for which the TGI in [1], in assay [2], in [4], in [5], in assay [6] and in [7] was over 100 µM in each case. The TGI in assay [8], in assay [9] and in [10] was over 100 µM each time.

Values taken from PubChem BioAssay (NCI).
